This is an account of results in patent US20150313921A1, “Cancer Treatment Methods” (PLEDPHARMA AB, priority 2012, published 2015).

The conditions of data set [1]: Mn2+ versus Zn2+.
The conditions of data set [2]: cited from earlier work.
The test system of data set [3] is human non-small cell lung cancer (NSCLC) U1810 cells. Description: MTT viability assay, U1810 cells. The class given is cell-based. To be noted: for IC50: 48 h exposure, read-out: IC50 (concentration causing 50% inhibition of viability). On the procedure: The viability of cells was measured using the MTT assay. […] Cells were then exposed for 48 h to 1-1,000 μM DPDP (lot #RDL02090206) or MnDPDP (lot #02090106). […] The viability of U1810 cells in the presence of increasing concentrations of DPDP or MnDPDP is presented as concentration-response curves (mean±S.D.). The individual curves were fitted to the sigmoidal normalized response logistic equation (Graphpad Prism, version 5.02). From this analysis the concentrations causing 50% inhibition (IC50) of the test substances were calculated.
(Formazan colour is commonly taken as a measure of viable cells.)

In data set [4] the test system is ovarian carcinoma A2780 cells. Description: MTT viability assay, A2780 cells. The note with it: for cytotoxic effect in A2780 cells: alone (MnDPDP: alone or with Dx 3 nM or 30 nM), 48 h, MTT; for EC50: Homo sapiens, A2780, 48 h.
Description: A2780 cells were co-incubated with MnDPDP, DPDP, and/or Dx. The viability of cells was measured using the methylthiazoletetrazolium (MTT) assay. Briefly, 8000 cells were seeded per well on a 96-well plate and grown overnight under standards. Cells were then exposed for 48 hours to various concentrations of MnDPDP, DPDP, and/or Dx at 37° C. The viability of the cells was then assessed by adding 5 mg/ml MTT to a final concentration of 0.5 mg/ml and incubating cells for a further 4 hours at 37° C. The blue formazan that is formed by mitochondrial dehydrogenases of viable cells was then dissolved overnight at 37° C. by adding 10% SDS and 10 mM HCl to a final concentration of 5% SDS and 5 mM HCl. Finally, the absorbance of the solution was read at 570 nm with a reference at 670 nm in a microplate reader (SpectraMax 340; Molecular Devices, Sunnyvale, Calif.) connected to an Apple Macintosh computer running the program Softmax Pro V1.2.0 (Molecular Devices). Viability is expressed as percent absorbance (A570 nm-A670 nm) relative to the untreated control cells. All values were given as arithmetic means±SD for in vitro cell MTT viability data. In vitro responses of Dx, MnDPDP, and/or DPDP with regard to viability are presented as concentration-effect curves. […] From this analysis, the low and Q7 high pD2 values (negative log of the concentration of Dx that produces half of its maximal inhibition in the two phases, −logIC50) were calculated.
The conditions of data set [5]: cited from earlier work. This is another data set of the same source.
For data set [6] the following is noted: pigs, ten minutes after injection; cited from earlier work.
Data set [7] deals with infarct size. The note with it: pigs; MnPLED 3 μmol/kg; cited from earlier work.

Like-named read-outs stand apart in the source and are kept apart here.

For `Cc1ncc(CO)c(CN(CCN(CC(=O)O)Cc2c(CO)cnc(C)c2O)CC(=O)O)c1O` [PLED, N,N′-dipyridoxyl ethylenediamine-N,N′-diacetic acid], the “Mn2+ dissociates more readily than Zn2+ (fold)” value in data set [1] is recorded as “about 1000 times”. Besides, in data set [2] (Mn2+), the “stability constant with Mn2+” value was 12.56 logK. The “stability constant with Zn2+” value in data set [2] (Zn2+) is reported as 16.68 logK.

With `Cc1ncc(COP(=O)(O)O)c(CN(CCN(CC(=O)O)Cc2c(COP(=O)(O)O)cnc(C)c2O)CC(=O)O)c1O` [DPDP, N,N′-bis-(pyridoxal-5-phosphate)-ethylenediamine-N,N′-diacetic acid], the “IC50 ratio between MnDPDP and DPDP (times more potent than MnDPDP)” value in data set [3] (48 h) was 17 times. Moreover, in data set [3], the IC50 is 52.8 µM. For the same molecule, in data set [1], the “Mn2+ dissociates more readily than Zn2+ (fold)” value is reported as “about 1000 times”. Besides, the cancer cells killed entry in data set [4] (30 μM, A2780 cells) was “approximately 50%”; in data set [4] (100 μM, A2780 cells) it was “killing almost all cells”. In addition, the “additive effect to the cytotoxic effect of Dx alone” value in data set [4] (DPDP 10 μM or 30 μM added to Dx, A2780 cells) is reported as “did not reveal any obvious additive effect”. In addition, the “cytotoxic effect in A2780 cells” value in data set [4] is “had cytotoxic effects”.

In the case of `COc1cccc2c1C(=O)c1c(O)c3c(c(O)c1C2=O)C[C@@](O)(C(=O)CO)C[C@@H]3O[C@H]1C[C@H](N)[C@H](O)[C@H](C)O1` [Dx, Doxorubicin, reference compound], the EC50 was 0.00545 µM in data set [4] (read-out: pD2 (-logEC50), first phase (high pD2) of biphasic curve (converted)) and 0.225 µM in data set [4] (read-out: pD2 (-logEC50), second phase (low pD2) of biphasic curve (converted)).

As for `Cc1[nH+]cc(COP(=O)([O-])[O-])c(CN(CCN(CC(=O)[O-])Cc2c(COP(=O)([O-])O)c[nH+]c(C)c2O)CC(=O)[O-])c1O.[Mn].[Na+].[Na+].[Na+]` [MnDPDP], the IC50 in data set [3] was determined as 437 µM. Moreover, the administered manganese released entry in data set [5] (intravenous injection into humans) is “about 80%”. For the same molecule, the “injected manganese that stays bound to the chelator” value in data set [5] (man, for a considerable amount of time) is “about 30%”. Further, in data set [5] (shortly after intravenous injection in man), the “injected MnDPDP transformed into MnPLED” value is given as “about 30%”. Further, the “replacement of manganese with zinc” value in data set [6] was “all manganese has been replaced with zinc”. Besides, in data set [7], the “effect on infarct size” value was “did not reduce the infarct size”. Further, the “cytotoxic effect in A2780 cells” value in data set [4] is “did not have any obvious cytotoxic effects”.
